Oligonucleotides are written 5' to 3', each unit as a sugar letter and its base; * is a phosphorothioate linkage, no mark a phosphodiester; rarer units and linkages stand in square brackets, end groups in braces. Plain capitals give the bases only. e = 2'-O-(2-methoxyethyl) (MOE); [5mC] = 5-methylcytosine; d = 2'-deoxy (DNA)
What follows are substances tested on mouse glucose-6-phosphatase translocase mRNA (assay: Antisense inhibition of mouse glucose-6-phosphatase translocase mRNA in primary mouse hepatocytes, 150 nM, LIPOFECTIN (Table 22)). Details: real-time PCR.
Assay type: cell-based
Protocol: Primary mouse hepatocytes were prepared from CD-1 mice purchased from Charles River Labs. Primary mouse hepatocytes were routinely cultured in Hepatocyte Attachment Media supplemented with 10% fetal bovine serum (Invitrogen Life Technologies, Carlsbad, Calif.), 250 nM dexamethasone, and 10 nM bovine insulin (Sigma-Aldrich, St. Louis, Mo.). Cells were seeded into 96-well plates (Falcon-Primaria #353872, BD Biosciences, Bedford, Mass.) at a density of approximately 4,000-6,000 cells/well for use in oligomeric compound transfection experiments.
When cells reached 65-75% confluency, they were treated with oligonucleotide. Oligonucleotide was mixed with LIPOFECTIN™ Invitrogen Life Technologies, Carlsbad, Calif.) in Opti-MEM™-1 reduced serum medium (Invitrogen Life Technologies, Carlsbad, Calif.) to achieve the desired concentration of oligonucleotide and a LIPOFECTIN™ concentration of 2.5 or 3 μg/mL per 100 nM oligonucleotide. This transfection mixture was incubated at room temperature for approximately 0.5 hours. For cells grown in 96-well plates, wells were washed once with 100 μL OPTI-MEM™-1 and then treated with 130 μL of the transfection mixture. Cells grown in 24-well plates or other standard tissue culture plates are treated similarly, using appropriate volumes of medium and oligonucleotide. Cells are treated and data are obtained in duplicate or triplicate. After approximately 4-7 hours of treatment at 37° C., the medium containing the transfection mixture was replaced with fresh culture medium. Cells were harvested 16-24 hours after oligonucleotide treatment.
Quantitation of glucose 6-phosphatase translocase mRNA levels was accomplished by real-time quantitative PCR using the ABI PRISM™ 7600, 7700, or 7900 Sequence Detection System (PE-Applied Biosystems, Foster City, Calif.) according to manufacturer's instructions.
Prior to quantitative PCR analysis, primer-probe sets specific to the target gene being measured were evaluated for their ability to be “multiplexed” with a GAPDH amplification reaction. After isolation the RNA is subjected to sequential reverse transcriptase (RT) reaction and real-time PCR, both of which are performed in the same well. RT and PCR reagents were obtained from Invitrogen Life Technologies (Carlsbad, Calif.). […] The RT reaction was carried out by incubation for 30 minutes at 48° C. Following a 10 minute incubation at 95° C. to activate the PLATINUM® Taq, 40 cycles of a two-step PCR protocol were carried out: 95° C. for 15 seconds (denaturation) followed by 60° C. for 1.5 minutes (annealing/extension).
Gene target quantities obtained by RT, real-time PCR were normalized using either the expression level of GAPDH, a gene whose expression is constant, or by quantifying total RNA using RiboGreen™ (Molecular Probes, Inc. Eugene, Oreg.). GAPDH expression was quantified by RT, real-time PCR, by being run simultaneously with the target, multiplexing, or separately. Total RNA was quantified using RiboGreen™ RNA quantification reagent (Molecular Probes, Inc. Eugene, Oreg.).
A series of oligomeric compounds was designed to target different regions of mouse glucose-6-phosphatase translocase, using published sequences cited in Table 1. All compounds in Table 22 are chimeric oligonucleotides (“gapmers”) 20 nucleotides in length, composed of a central “gap” region consisting of 10 2′-deoxynucleotides, which is flanked on both sides (5′ and 3′) by five-nucleotide “wings”. The wings are composed of 2′-O-(2-methoxyethyl) nucleotides, also known as 2′-MOE nucleotides. The internucleoside (backbone) linkages are phosphorothioate throughout the oligonucleotide. All cytidine residues are 5-methylcytidines. The compounds were analyzed for their effect on gene target mRNA levels by quantitative real-time PCR as described in other examples herein, using the following primer-probe set designed to hybridize to mouse glucose-6-phosphatase translocase: • forward primer: […]
With “145691 (antisense eT*eG*eT*e[5mC]*eT*dG*dA*d[5mC]*dA*dG*dG*dT*dA*dA*d[5mC]*e[5mC]*eA*eG*e[5mC]*eT) [compound 145691]” the “% Inhib of mouse glucose-6-phosphatase translocase mRNA levels” value (shortened to “% Inhib”) was 30%.
With “145692 (antisense eG*e[5mC]*eT*eG*e[5mC]*d[5mC]*dA*dT*d[5mC]*d[5mC]*d[5mC]*dA*dG*d[5mC]*d[5mC]*eA*eT*e[5mC]*eA*eT) [compound 145692]” the “% Inhib” value was 65%.
“145693 (eG*eG*eA*eA*eG*dA*dG*dA*dT*dA*d[5mC]*dG*dT*dG*dG*eA*eT*eG*e[5mC]*eT; antisense) [compound 145693]” was tested, and the “% Inhib” value was 0%.
“145694 (eA*eG*eT*e[5mC]*eA*d[5mC]*dT*dG*dG*dT*d[5mC]*dA*d[5mC]*d[5mC]*dG*eT*eT*eA*e[5mC]*eT; antisense) [compound 145694]” was tested, and the “% Inhib” value was 23%.
With “145695 (e[5mC]*eA*eA*eT*eG*dG*dG*dA*d[5mC]*d[5mC]*dA*dT*dA*dA*dG*eA*eA*eG*eA*eG; antisense) [compound 145695]” the “% Inhib” value was 24%.
For “145696 (e[5mC]*eT*e[5mC]*e[5mC]*eA*dA*dA*d[5mC]*dA*dA*dG*dG*d[5mC]*dA*dA*eT*eG*eG*eG*eA; antisense) [compound 145696]”, the “% Inhib” value was 37%.
“145697 (eT*eG*eG*e[5mC]*eT*dA*dT*dG*dA*d[5mC]*dT*d[5mC]*d[5mC]*dA*dA*eA*e[5mC]*eA*eA*eG; antisense) [compound 145697]” was tested, and the “% Inhib” value was 45%.
With “145698 (e[5mC]*e[5mC]*eA*e[5mC]*eA*dA*dT*dA*dG*d[5mC]*dA*dT*dG*dA*dG*eA*eG*eG*eT*eT; antisense) [compound 145698]” the “% Inhib” value was 33%.
For “145699 (eT*e[5mC]*e[5mC]*eA*e[5mC]*d[5mC]*d[5mC]*dA*d[5mC]*dA*dT*dT*dG*dG*d[5mC]*e[5mC]*eA*eT*eA*eA; antisense) [compound 145699]”, the “% Inhib” value was 41%.
For “145701 (eA*eG*eT*eG*e[5mC]*dT*dT*dG*dG*d[5mC]*dA*dA*dT*dG*dG*eT*eG*e[5mC]*eT*eG; antisense) [compound 145701]”, the “% Inhib” value was 54%.
In the case of “145703 (eA*e[5mC]*e[5mC]*eA*e[5mC]*dT*dT*d[5mC]*dT*dG*d[5mC]*d[5mC]*dA*d[5mC]*d[5mC]*e[5mC]*eA*eG*eA*eA; antisense) [compound 145703]”, the “% Inhib” value is reported as 42%.
In the case of “145704 (eG*e[5mC]*eT*eG*eG*d[5mC]*dT*d[5mC]*d[5mC]*dA*d[5mC]*dA*dA*dA*d[5mC]*e[5mC]*eA*e[5mC]*eT*eT; antisense) [compound 145704]”, the “% Inhib” value is reported as 54%.
With “145705 (e[5mC]*eT*eT*eG*eG*dT*dG*d[5mC]*dG*dG*dA*dT*dA*dT*dT*eT*e[5mC]*eG*eA*eA; antisense) [compound 145705]” the “% Inhib” value was 49%.
“145707 (eT*eG*eG*eA*eT*dA*d[5mC]*dT*d[5mC]*dG*dG*d[5mC]*d[5mC]*d[5mC]*dA*eT*e[5mC]*eT*eT*eG; antisense) [compound 145707]” was tested, and the “% Inhib” value was 56%.
For “145708 (eG*eG*eA*e[5mC]*eT*d[5mC]*dG*dA*dT*dT*d[5mC]*dA*d[5mC]*dT*d[5mC]*eT*e[5mC]*e[5mC]*e[5mC]*eT; antisense) [compound 145708]”, the “% Inhib” value was 48%.
With “145709 (eG*eG*eG*eA*eT*dG*d[5mC]*dT*d[5mC]*d[5mC]*dA*dT*dA*dG*d[5mC]*eG*eA*eG*eG*eA; antisense) [compound 145709]” the “% Inhib” value was 14%.
In the case of “145710 (e[5mC]*e[5mC]*eT*eG*e[5mC]*d[5mC]*dA*dG*dT*dA*dA*dG*dG*d[5mC]*dT*eG*e[5mC]*eA*eG*eT; antisense) [compound 145710]”, the “% Inhib” value is reported as 13%.
With “145711 (eG*eA*eG*eA*eG*dA*d[5mC]*dA*dG*dT*dG*dG*dA*dG*dA*e[5mC]*eA*e[5mC]*eA*eG; antisense) [compound 145711]” the “% Inhib” value was 33%.
In the case of “145712 (eT*eG*eG*eA*eG*dG*dT*dT*d[5mC]*dA*dG*dA*dG*dA*dG*eA*e[5mC]*eA*eG*eT; antisense) [compound 145712]”, the “% Inhib” value is reported as 42%.
For “145713 (eG*eT*eA*eA*e[5mC]*dT*dT*dG*d[5mC]*dA*dG*d[5mC]*dA*d[5mC]*d[5mC]*eA*eT*eG*eG*eA; antisense) [compound 145713]”, the “% Inhib” value was 63%.
With “145714 (eG*e[5mC]*e[5mC]*eA*e[5mC]*dT*dG*dG*dT*dA*dA*d[5mC]*dT*dT*dG*e[5mC]*eA*eG*e[5mC]*eA; antisense) [compound 145714]” the “% Inhib” value was 66%.
In the case of “145715 (eA*eG*eG*eA*eG*dT*dT*dG*d[5mC]*d[5mC]*dT*dG*dT*d[5mC]*dT*eG*e[5mC]*e[5mC]*eA*eG; antisense) [compound 145715]”, the “% Inhib” value is reported as 50%.
With “145716 (e[5mC]*e[5mC]*e[5mC]*eT*eG*dA*dA*dT*dT*d[5mC]*dA*dG*dG*dA*dG*eT*eT*eG*e[5mC]*e[5mC]; antisense) [compound 145716]” the “% Inhib” value was 52%.
In the case of “145717 (eT*eA*e[5mC]*eT*e[5mC]*dA*d[5mC]*dT*dA*dG*dG*dA*dG*dA*dT*e[5mC]*eA*eG*eG*eA; antisense) [compound 145717]”, the “% Inhib” value is reported as 52%.
For “145718 (e[5mC]*eA*eA*eT*eT*dT*dT*dG*d[5mC]*d[5mC]*d[5mC]*d[5mC]*d[5mC]*dT*dG*e[5mC]*e[5mC]*eA*eA*eG; antisense) [compound 145718]”, the “% Inhib” value was 26%.
For “145719 (eG*eA*eG*eT*eG*dG*dT*dG*dG*dA*d[5mC]*dT*d[5mC]*d[5mC]*dT*e[5mC]*eT*e[5mC]*e[5mC]*eT; antisense) [compound 145719]”, the “% Inhib” value was 47%.
For “145720 (TCAAATCTAGCTTTATTCGA; 2'-MOE wings and deoxy gap, wing lengths and linkages not given here) [compound 145720]”, the “% Inhib” value was 11%.
With “145721 (eG*eG*e[5mC]*eT*eG*dT*dG*dG*dG*dT*d[5mC]*d[5mC]*d[5mC]*d[5mC]*dG*eA*eA*e[5mC]*eG*eA; antisense) [compound 145721]” the “% Inhib” value was 0%.
For “145722 (e[5mC]*eA*eG*eT*eG*dT*d[5mC]*d[5mC]*d[5mC]*dT*dG*d[5mC]*dG*dA*d[5mC]*eA*eT*e[5mC]*eA*eG; antisense) [compound 145722]”, the “% Inhib” value was 8%.
For “145723 (eG*e[5mC]*e[5mC]*eG*e[5mC]*d[5mC]*dT*dT*d[5mC]*dT*dG*dG*dA*d[5mC]*dA*eA*eT*e[5mC]*eA*eT; antisense) [compound 145723]”, the “% Inhib” value was 0%.
“145724 (eG*eG*e[5mC]*eT*e[5mC]*dT*dT*dT*dA*dT*dA*dG*d[5mC]*d[5mC]*dG*e[5mC]*e[5mC]*eT*eT*e[5mC]; antisense) [compound 145724]” was tested, and the “% Inhib” value was 0%.

Reference: patent publication US8258114B2, “Modulation of glucose-6-phosphatase translocase expression” (Isis Pharmaceuticals, Inc., priority 2004, dated 2012)
